Assay results as given in US20040184993A1, “Pharmaceutical aerosol composition containing HFA 227 and HFA 134a” (Chiesi Farmaceutici S.p.A., priority 1998, published 2004).
Several values for one entry are separate records, joined by “and”; a condition that tells them apart may be missing. Equal entries are not always repeated. Where two headings read alike, the source gives them in different places.

Legend:
[1] = Aerodynamic particle size distribution of pMDI solution formulations by Andersen Cascade Impactor (MMAD, GSD, fine particle dose); assay type: physicochemical; conditions: for FPD3 < 4.7 μm*: ethanol 15%, normalized for 250 nominal dose
Experimental: The aerodynamic particle size distribution of each formulation was characterized using a Multistage Cascade Impactor according to the procedure described in the European Pharmacopoeia 2nd edition, 1995, part V.5.9.1. pages 15-17. In this specific case an Andersen Cascade Impactor (ACI) was used. Results represented were obtained from ten cumulative actuations of a formulation. Deposition of the drug on each ACI plate was determined by high pressure liquid chromatography. The mass median aerodynamic diameter (MMAD) and geometric standard deviation (GSD) were calculated from plots of the cumulative percentage undersize of drug collected on each ACI plate (probit scale), against the upper cut off diameter for each respective ACI plate (log10 scale). The fine particle dose of each formulation was determined from the mass of drug collected on Stages 3 through to Filter (<4.7 μm) divided by the number of actuations per experiment.

[2] = BDP as a solution in HFA 134a (formulations of EP 0553298), reported in literature; cited from earlier work
[3] = BDP 50 μg/shot, ethanol 13%, glycerol 1.3%, HFA 134a, chamber volume 25 μl, actuator orifice 0.25 mm
[4] = BDP 50 μg/shot, ethanol 13%, glycerol 1.3%, HFA 134a, chamber volume 25 μl, actuator orifice 0.30 mm
[5] = BDP 50 μg/shot, ethanol 13%, glycerol 1.3%, HFA 134a, chamber volume 50 μl, actuator orifice 0.30 mm
[6] = BDP 50 μg/shot, ethanol 13%, glycerol 1.3%, HFA 134a, chamber volume 100 μl, actuator orifice 0.30 mm
[7] = BDP 50 μg/shot, ethanol 13%, glycerol 1.3%, HFA 227, chamber volume 25 μl, actuator orifice 0.30 mm
[8] = BDP 50 μg/shot, ethanol 13%, glycerol 1.3%, HFA 227, chamber volume 50 μl, actuator orifice 0.30 mm
[9] = BDP 50 μg/shot, ethanol 13%, glycerol 1.3%, HFA 227, chamber volume 100 μl, actuator orifice 0.30 mm
[10] = BDP 250 μg/shot, ethanol 15% (w/w), glycerol 1.3% (w/w), actuator 0.30 mm, HFA 227/HFA 134a 0:100
[11] = BDP 250 μg/shot, ethanol 15% (w/w), glycerol 1.3% (w/w), actuator 0.30 mm, HFA 227/HFA 134a 25:75
[12] = BDP 250 μg/shot, ethanol 15% (w/w), glycerol 1.3% (w/w), actuator 0.30 mm, HFA 227/HFA 134a 50:50
[13] = BDP 250 μg/shot, ethanol 15% (w/w), glycerol 1.3% (w/w), actuator 0.30 mm, HFA 227/HFA 134a 75:25
[14] = BDP 250 μg/shot, ethanol 15% (w/w), glycerol 1.3% (w/w), actuator 0.30 mm, HFA 227/HFA 134a 100:0

FPD < 4.7 μm [1, 3]: 26.0 µg
GSD [1, 3]: 1.9
MMAD [1, 3]: 2.8 μm
Metered Dose [1, 3]: 55 µg
FPD < 4.7 μm [1, 4]: 19.2 µg
GSD [1, 4]: 2.0
MMAD [1, 4]: 2.6 μm
Metered Dose [1, 4]: 57 µg
FPD < 4.7 μm [1, 5]: 13.9 µg
GSD [1, 5]: 2.1
MMAD [1, 5]: 2.8 μm
Metered Dose [1, 5]: 49 µg
FPD < 4.7 μm [1, 6]: 11.7 µg
GSD [1, 6]: 2.2
MMAD [1, 6]: 2.7 μm
Metered Dose [1, 6]: 51 µg
FPD < 4.7 μm [1, 7]: 16.4 µg
GSD [1, 7]: 2.1
MMAD [1, 7]: 3.6 μm
Metered Dose [1, 7]: 58 µg
FPD < 4.7 μm [1, 8]: 13.1 µg
GSD [1, 8]: 2.2
MMAD [1, 8]: 3.5 μm
Metered Dose [1, 8]: 51 µg
FPD < 4.7 μm [1, 9]: 12.6 µg
GSD [1, 9]: 2.2
MMAD [1, 9]: 3.5 μm
Metered Dose [1, 9]: 49 µg
FPD [1, 10]: 27, 27%
MMAD [1, 10]: 2.8, 2.8 μm
FPD [1, 11]: 27% and 28%
MMAD [1, 11]: 3.3 μm and 3.2 μm
FPD [1, 12]: 25, 25%
MMAD [1, 12]: 3.4 μm and 3.7 μm
FPD [1, 13]: 25, 25%
MMAD [1, 13]: 3.7, 3.7 μm
FPD [1, 14]: 20% and 24%
MMAD [1, 14]: 4.2 μm and 3.9 μm and 3.8 μm
FPD3 < 4.7 μm* ([1]; BDP 250 μg/shot, glycerol 1.3%, actuator 0.30 mm, HFA 227/HFA 134a 0:100): 58 µg and 59 µg
FPD3 < 4.7 μm* ([1]; BDP 250 μg/shot, glycerol 1.3%, actuator 0.30 mm, HFA 227/HFA 134a 25:75): 60 µg and 62 µg
FPD3 < 4.7 μm* ([1]; BDP 250 μg/shot, glycerol 1.3%, actuator 0.30 mm, HFA 227/HFA 134a 50:50): 56, 56 μg
FPD3 < 4.7 μm* ([1]; BDP 250 μg/shot, glycerol 1.3%, actuator 0.30 mm, HFA 227/HFA 134a 75:25): 56 µg and 57 µg
FPD3 < 4.7 μm* ([1]; BDP 250 μg/shot, glycerol 1.3%, actuator 0.30 mm, HFA 227/HFA 134a 100:0): 47 µg and 45 µg and 50 µg
Compound: CCC(=O)OCC(=O)[C@@]1(OC(=O)CC)[C@@H](C)C[C@H]2[C@@H]3CCC4=CC(=O)C=C[C@]4(C)[C@@]3(Cl)[C@@H](O)C[C@@]21C [BDP, beclomethasone 17,21 dipropionate]
MMAD [2]: 1.1 μm
